Source: BindingDB's records for doi:10.7270/Q2TX3CSC (Vanderbilt Screening Center for GPCRs, Ion Channels and …, 2009)
pEC50: −log10 of the molar value.

These compounds were tested against T1, Solute carrier family 12 member 5 (Homo sapiens, UniProt Q9H2X9) (assay: KCC2 modulator potency by thallium flux, dose response, cell-based, HEK293 KCC2, FluoZin-2 fluorescence (AID 1736)). Conditions: not given.
T1 sequence (Q9H2X9 whole entry): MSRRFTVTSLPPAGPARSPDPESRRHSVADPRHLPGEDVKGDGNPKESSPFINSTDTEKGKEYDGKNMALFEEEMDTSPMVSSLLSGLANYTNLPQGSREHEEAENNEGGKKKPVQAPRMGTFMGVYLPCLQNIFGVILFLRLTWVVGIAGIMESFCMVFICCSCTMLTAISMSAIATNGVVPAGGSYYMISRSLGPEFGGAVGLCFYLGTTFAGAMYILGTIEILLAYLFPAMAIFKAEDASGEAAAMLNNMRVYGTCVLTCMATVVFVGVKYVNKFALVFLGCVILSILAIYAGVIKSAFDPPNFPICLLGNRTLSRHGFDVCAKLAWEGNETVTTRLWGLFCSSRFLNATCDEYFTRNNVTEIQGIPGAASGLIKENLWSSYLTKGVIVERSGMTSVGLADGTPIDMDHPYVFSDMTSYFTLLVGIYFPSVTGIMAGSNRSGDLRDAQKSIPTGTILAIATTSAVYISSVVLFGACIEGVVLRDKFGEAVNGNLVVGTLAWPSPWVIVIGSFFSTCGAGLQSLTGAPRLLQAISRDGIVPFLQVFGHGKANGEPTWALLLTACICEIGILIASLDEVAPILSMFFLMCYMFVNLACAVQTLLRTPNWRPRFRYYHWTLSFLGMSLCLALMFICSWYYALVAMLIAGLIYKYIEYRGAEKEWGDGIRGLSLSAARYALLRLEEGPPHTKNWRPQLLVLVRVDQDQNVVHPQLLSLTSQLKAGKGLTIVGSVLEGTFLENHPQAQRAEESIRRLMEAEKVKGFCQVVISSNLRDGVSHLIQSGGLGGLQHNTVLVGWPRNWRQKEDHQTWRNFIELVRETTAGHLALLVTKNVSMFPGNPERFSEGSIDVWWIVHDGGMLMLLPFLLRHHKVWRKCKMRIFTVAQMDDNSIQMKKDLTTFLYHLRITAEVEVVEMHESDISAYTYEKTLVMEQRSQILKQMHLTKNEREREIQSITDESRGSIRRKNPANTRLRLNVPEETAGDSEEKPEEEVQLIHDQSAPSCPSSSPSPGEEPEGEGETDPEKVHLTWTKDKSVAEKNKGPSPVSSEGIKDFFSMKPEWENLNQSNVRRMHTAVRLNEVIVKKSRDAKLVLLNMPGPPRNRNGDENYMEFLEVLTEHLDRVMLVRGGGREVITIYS
`Cc1ccc2[nH]c(=O)c(CN(CCc3ccccc3)Cc3nnnn3CC3CCCO3)cc2c1` (stereo unspecified) [SMR000003177] gave a pEC50 of 5.37. `O=C(CSc1nnc(-c2c[nH]c3ccccc23)o1)N1CCCCC1` [SMR000003748] was tested, and the pEC50 was 5.74. `c1ccc(-c2nnc(Sc3ncnc4c3cnn4-c3ccccc3)[nH]2)cc1` [SMR000019566] was tested, and the pEC50 was 5.23. With `CC(C)NC(=S)NNC1=c2cc(C(C)C)ccc2=NC1=O` [SMR000242097] the pEC50 was 5.29. With `CN1/C(=C\C(=S)NC(=O)c2cccc(Br)c2)C(C)(C)c2ccccc21` [SMR000254682] the pEC50 was 5.27. Compound `CC(=NNC(=S)Nc1c(C)cccc1C)c1cc2ccccc2o1` [SMR000260555] has a pEC50 of 5.35. `Cc1nc(SCc2ccc(F)cc2)c([N+](=O)[O-])[nH]1` [SMR000271028] was tested, and the pEC50 was 5.20. With `Cc1ccc(C2=CSC3=NNC4(CCCCC4)NN23)cc1` [SMR000306481] the pEC50 was 5.60. Work on `CN(C)S(=O)(=O)c1ccc(Cl)c(C(=O)Nc2nc3ccccc3[nH]2)c1` [SMR000370637] yielded a pEC50 of 5.68. Compound `COc1cc(CC(C)N)c(OC)cc1I` (stereo unspecified) [[125I]2,5-dimethoxy-4-iodoamphetamine] has a pEC50 of 3.54.

Same assay, conditions: inactive by the depositor's call
With `O=C(O)CC/C(=C\c1cccc(NC(=O)c2ccccc2Cl)c1)c1nc2ccccc2s1` [SMR000371789] the pEC50 was 5.32.
